Assays:
human FABP1 [1] = settings: cited from earlier work
human FABP1 T94A variant = settings: T94A variant vs WT human FABP1; cited from earlier work
rat FABP1 [2] = target: T1, rat FABP1 (Rattus norvegicus, UniProt P02692); settings: cited from earlier work; for number of ligand molecules bound per FABP1 (binding sites): rat FABP1, fractional saturation curves, Fig 2B; for Kd: read-out: Kd, direct binding of NBD-labeled ligand, rat FABP1, mean ± SE n=3, Fig 2B
T1 sequence (P02692 1-127): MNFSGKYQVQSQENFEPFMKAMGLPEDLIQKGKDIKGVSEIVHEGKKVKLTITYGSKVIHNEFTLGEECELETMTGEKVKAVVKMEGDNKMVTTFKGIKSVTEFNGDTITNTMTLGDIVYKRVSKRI

rat FABP1 [3] = target: T1, rat FABP1; settings: read-out: Ki, displacement of FABP1-bound cis-parinaroyl-CoA; rat FABP1, mean ± SE n=3, Fig 1A; cited from earlier work
human WT FABP1 [4] = target: T2, human WT FABP1 (Homo sapiens, UniProt P07148); assay: cis-parinaroyl-CoA fluorescent ligand displacement assay, human FABP1; assay type: binding; settings: AEA 0–6μM, Fig 1B
T2 sequence (P07148 1-127): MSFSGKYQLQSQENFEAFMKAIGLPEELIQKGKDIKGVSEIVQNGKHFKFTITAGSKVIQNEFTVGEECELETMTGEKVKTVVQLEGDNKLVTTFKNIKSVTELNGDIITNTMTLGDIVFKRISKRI

human WT FABP1 [5] = target: T2, human WT FABP1; assay: DAUDA fluorescent ligand displacement assay, human FABP1; assay type: binding; settings: AEA 0–6μM, Fig 1B
human FABP1 [6] = settings: read-out: Ki (printed Kids), ANS displacement; cited from earlier work
L-cells = assay: Cellular uptake of NBD-labeled probes by confocal imaging; assay type: cell-based, murine; settings: Fig 3B

CC(C)CCC[C@@H](C)[C@H]1CC[C@H]2[C@@H]3CC=C4C[C@@H](O)CC[C@]4(C)[C@H]3CC[C@]12C [cholesterol]
fold weaker affinity of human FABP1 compared to rat FABP1 (human FABP1 [1]; human vs rat FABP1): 3.5 fold | fold increase in affinity of human FABP1 by T94A substitution (human FABP1 T94A variant): 3 fold

O=C(O)CCC/C=C\C/C=C\C/C=C\C/C=C\CCCCCNc1ccc([N+](=O)[O-])c2nonc12 [NBD-ARA, 20-[(7-nitro-2-1,3-benzoxadiazol-4-yl)amino] arachidonic acid]
number of ligand molecules bound per FABP1 (binding sites) (rat FABP1 [2]): two | Kd (rat FABP1 [2]): 660 ± 60 nM

CCCCC/C=C\C/C=C\C/C=C\C/C=C\CCCC(=O)OC(CO)CO [2-AG, 2-arachidonoylglycerol]
Ki (rat FABP1 [3]): 205 ± 3 nM

CCCCC/C=C\C/C=C\C/C=C\C/C=C\CCCC(=O)NCCO [AEA, N-arachidonoylethanolamide]
displacement of human FABP1 bound cis-parinaroyl CoA (human WT FABP1 [4]): did not displace | displacement of human FABP1 bound DAUDA (human WT FABP1 [5]): did displace | Ki (rat FABP1 [3]): 400 ± 20 nM

CCCCC/C=C\C/C=C\C/C=C\C/C=C\CCCC(=O)O [ARA, arachidonic acid]
Ki (human FABP1 [6]): 113 ± 6 nM

CCCCCCCC/C=C\CCCCCCCC(=O)SCCNC(=O)CCNC(=O)[C@H](O)C(C)(C)COP(=O)(O)OP(=O)(O)OC[C@H]1O[C@@H](n2cnc3c(N)ncnc32)[C@H](O)[C@@H]1OP(=O)(O)O [oleoyl-CoA]
fold higher affinity of human FABP1 compared to rat FABP1 (human FABP1 [1]; human vs rat FABP1 within the same study): 2.2 fold

O=C(CCC/C=C\C/C=C\C/C=C\C/C=C\CCCCCNc1ccc([N+](=O)[O-])c2nonc12)NCCO [NBD-AEA, 20-[(7-nitro-2-1,3-benzoxadiazol-4-yl)amino] arachidonoylethanolamide]
number of ligand molecules bound per FABP1 (binding sites) (rat FABP1 [2]): single | Kd (rat FABP1 [2]): 800 ± 200 nM | maximal uptake, fold higher than that of NBD-ARA (L-cells): at least 1.6 fold

O=C(CCC/C=C\C/C=C\C/C=C\C/C=C\CCCCCNc1ccc([N+](=O)[O-])c2nonc12)OC(CO)CO [NBD-2-AG]
number of ligand molecules bound per FABP1 (binding sites) (rat FABP1 [2]): single | Kd (rat FABP1 [2]): 250 ± 50 nM | maximal uptake, fold higher than that of NBD-ARA (L-cells): at least 1.6 fold
